In US12252524B2, “GIP/GLP1 co-agonist compounds” (Eli Lilly and Company, priority 2018, dated 2025):
Numbered stars: 1 amine (or outer) side, 2 acyl side, 3 side chain; on linkers, the order of the positions; unused ones are H or OH. Square brackets hold non-standard residues; d marks the D form. Side chains are listed from the residue outwards. Peptide text beside a SMILES is read from it. * marks the point of attachment. C20 diacid = O=C(O)CCCCCCCCCCCCCCCCCCC(=O)*; C18 diacid = O=C(O)CCCCCCCCCCCCCCCCC(=O)*; γGlu = O=C(O)[C@H](CCC(=O)[*:2])N[*:1]; αMeY = C[C@](N)(Cc1ccc(O)cc1)C(=O)O; αMeL = CC(C)C[C@](C)(N)C(=O)O; AEEA = NCCOCCOCC(=O)O; Aib = CC(C)(N)C(=O)O

Assays:
[1] = biological target: T1, gastric inhibitory peptide receptor (GIPR) (Homo sapiens, UniProt P48546); test: cAMP pharmacological functional assay in presence of casein, hGIPR; type: cell-based; details: HEK293 cells expressing hGIPR, 0.1% Casein, geometric mean; read-out: hGIPR cAMP Rel EC50 nM (SEM, n)
T1 sequence (P48546 22-466): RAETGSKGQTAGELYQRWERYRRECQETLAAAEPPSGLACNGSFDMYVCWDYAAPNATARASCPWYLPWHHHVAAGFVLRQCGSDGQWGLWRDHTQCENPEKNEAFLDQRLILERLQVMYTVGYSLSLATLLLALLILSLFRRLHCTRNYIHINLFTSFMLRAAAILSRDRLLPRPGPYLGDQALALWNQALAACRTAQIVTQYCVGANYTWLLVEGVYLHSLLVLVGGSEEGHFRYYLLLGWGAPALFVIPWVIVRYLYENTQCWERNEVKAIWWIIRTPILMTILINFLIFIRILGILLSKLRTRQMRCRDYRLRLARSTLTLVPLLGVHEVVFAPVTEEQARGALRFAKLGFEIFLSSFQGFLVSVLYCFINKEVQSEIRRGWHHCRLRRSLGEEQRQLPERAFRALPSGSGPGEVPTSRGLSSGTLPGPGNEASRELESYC

human GLP-1R [2] = biological target: T2, human GLP-1R (Homo sapiens, UniProt P43220); test: GLP-1R HEK293 cell membrane [35S]GTPγS binding assay; type: biochemical; set-up: expressed in transfected cells; host or cells: HEK293 cells expressing human GLP-1R; membranes; details: HEK293 cell membranes expressing human GLP-1R, [35S]GTPγS binding; read-out: hGLP1R GTPgS Rel EC50 nM (SEM, n)
T2 sequence (P43220 24-463): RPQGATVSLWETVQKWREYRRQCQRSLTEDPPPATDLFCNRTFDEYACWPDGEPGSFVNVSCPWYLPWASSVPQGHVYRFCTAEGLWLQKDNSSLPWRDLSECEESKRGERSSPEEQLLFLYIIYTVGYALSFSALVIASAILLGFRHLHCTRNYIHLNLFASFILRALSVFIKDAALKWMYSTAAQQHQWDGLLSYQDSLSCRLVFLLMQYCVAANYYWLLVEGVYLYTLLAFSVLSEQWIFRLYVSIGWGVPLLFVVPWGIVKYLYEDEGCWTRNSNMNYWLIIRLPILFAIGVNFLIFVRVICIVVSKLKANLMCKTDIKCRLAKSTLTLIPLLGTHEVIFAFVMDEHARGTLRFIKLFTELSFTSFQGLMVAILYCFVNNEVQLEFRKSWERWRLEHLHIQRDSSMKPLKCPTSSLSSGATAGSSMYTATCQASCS
Method: The GLP-1 receptor is a G-protein coupled receptor that increases GTP-bound Gas upon ligand induced receptor activation. The potency of peptides to stimulate-GLP-1R induced activation of Gac is determined using preparations of purified membranes from HEK293 cells expressing the human GLP-1R. […] The test peptides are solubilized in DMSO and diluted in reaction buffer containing 5 μg of membrane in 20 mM HEPES pH 7.4, 50 mM NaCl, 5 mM MgCl2, 40 μg/ml saponin, 0.1% BSA, and […] ^35S-labeled GTPTS for 30 minutes at room temperature. Reactions are terminated by addition of 0.2% Nonidet β-40 detergent containing rabbit anti-Gas polyclonal antibody and 0.5 mg of anti-rabbit polyvinyltoluene beads. Mixtures are developed for 30 minutes, centrifuged at 80×g for 10 minutes, and counted for 1 minute/well using a MicroBeta TriLux instrument. Peptide concentration-response curves are fit to a four-parameter logistic model to calculate potency as an EC50.

[3] = biological target: human GLP-1 receptor (GLP-1R) (Homo sapiens, UniProt P43220); test: cAMP pharmacological functional assay in presence of casein, hGLP-1R; type: cell-based; details: HEK293 cells expressing hGLP-1R, 0.1% Casein, geometric mean; read-out: hGLP1R cAMP Rel EC50 nM (SEM, n)
Sequence of human GLP-1 receptor (GLP-1R) (P43220 24-463): as above

human GLP-1R [4] = biological target: T2, human GLP-1R; test: GLP-1R CHO cell β-arrestin recruitment assay; type: cell-based; set-up: host or cells: CHO-K1 PathHunter cells, assay-ready frozen; details: for EC50: CHO-K1 cells, PathHunter β-arrestin-2 recruitment, 0.1% casein, read-out: hGLP1R B-Arrestin2 Rel EC50 uM (SEM, n); for hGLP1R B-Arrestin2 % Top: normalized to GLP-1 maximum control
Excerpt: Activated G-protein coupled receptors can interact with the β-arrestin family of signalling proteins. […] CHO-K1 cells expressing Pro-Link-tagged Human GLP-1R and enzyme-acceptor-tagged β-arrestin-2 may be obtained from DiscoveRx and prepared as assay-ready frozen cells. Test peptides are solubilized in DMSO and serial dilutions are perfomed using the Echo acoustic dispenser (LabCyte). Assay media is the PathHunter Cell Assay Buffer (DiscoveRx) containing 0.1% w/v hydrolyzed Casein (Sigma). […] Plates are incubated for 90 minutes in a 37′C/5% C02 incubator and 10 ul of PathHunter detection reagent is added (DiscoveRx) and plates are incubated at room temperature for 60 minutes. Luminescence signal is measured. Peptide concentration-response curves fit to a four-parameter logistic model to calculate potency as an EC50.

human GIP receptor = biological target: T3, human GIP receptor (Homo sapiens, UniProt P48546); test: [125I]-GIP binding (SPA), human GIP receptor; details: read-out: hGIPR Ki, nM (SEM, n)
T3 construct: expressed in transfected cells; crude membranes
T3 sequence (P48546 22-466): T1 sequence (P48546 22-466)

human GLP-1R [5] = biological target: T2, human GLP-1R; test: [125I]-GLP-1 binding (SPA), human GLP-1 receptor; set-up: expressed in transfected cells; crude membranes; details: read-out: hGLP1R Ki, (nM) (SEM, n)
Outline: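 Membranes: hypotonic lysis (50 mM Tris HCl, pH 7.5, protease inhibitors), Potter-Elvehjem homogenization, high-speed pellet (35000×g 1 h or 25000×g 30 min, 4° C.). Buffer: 25 mM HEPES pH 7.4, 2.5 mM CaCl2, 1 mM MgCl2. Four-parameter IC50 fit; Ki as geometric mean ± SEM.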

human Gcg receptor = biological target: T4, human Gcg receptor (Homo sapiens, UniProt P47871); test: [125I]-Glucagon binding (SPA), human Gcg receptor; details: read-out: hGLcgR Ki, nM (SEM, n)
T4 construct: expressed in transfected cells; crude membranes
T4 sequence (P47871 26-477): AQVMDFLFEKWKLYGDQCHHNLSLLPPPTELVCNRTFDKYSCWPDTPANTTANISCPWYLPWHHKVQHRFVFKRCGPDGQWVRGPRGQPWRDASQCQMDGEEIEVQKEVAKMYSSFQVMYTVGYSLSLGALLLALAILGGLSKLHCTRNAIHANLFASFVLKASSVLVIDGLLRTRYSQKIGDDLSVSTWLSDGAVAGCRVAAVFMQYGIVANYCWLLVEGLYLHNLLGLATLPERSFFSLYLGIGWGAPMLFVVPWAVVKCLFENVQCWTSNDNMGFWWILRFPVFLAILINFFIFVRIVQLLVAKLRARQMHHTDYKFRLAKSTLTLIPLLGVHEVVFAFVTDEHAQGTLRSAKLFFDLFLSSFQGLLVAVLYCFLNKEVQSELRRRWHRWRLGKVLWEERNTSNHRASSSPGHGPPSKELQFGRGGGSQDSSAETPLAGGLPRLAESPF
Outline: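 Scintillation counts are taken after membranes and WGA beads incubate and settle for 12 hours at room temperature. Buffer is 25 mM HEPES, pH 7.4, with CaCl2, MgCl2, bacitracin and Tween-20. Ki values, from four-parameter IC50 fits, are geometric means over independent days.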

SMILES | EC50 [1] | EC50 (human GLP-1R [2]) | EC50 [3] | EC50 (human GLP-1R [4]) | hGLP1R B-Arrestin2 % Top (human GLP-1R [4]) | Ki (human GIP receptor) | Ki (human GLP-1R [5]) | Ki (human Gcg receptor)
CC[C@H](C)[C@H](NC(=O)[C@H](CC(C)C)NC(=O)[C@](C)(Cc1ccc(O)cc1)NC(=O)[C@H](CCC(=O)O)NC(=O)[C@@H](NC(=O)[C@H](Cc1ccccc1)NC(=O)[C@H](C)NC(=O)C(C)(C)NC(=O)[C@H](CCC(N)=O)NC(=O)[C@H](C)NC(=O)[C@H](CCCCNC(=O)COCCOCCNC(=O)COCCOCCNC(=O)CC[C@H](NC(=O)CCCCCCCCCCCCCCCCCCC(=O)O)C(=O)O)NC(=O)[C@H](CCCCN)NC(=O)[C@H](CC(=O)O)NC(=O)[C@H](CC(C)C)NC(=O)[C@](C)(CC(C)C)NC(=O)[C@@H](NC(=O)[C@H](CO)NC(=O)[C@H](Cc1ccc(O)cc1)NC(=O)[C@H](CC(=O)O)NC(=O)[C@H](CO)NC(=O)[C@@H](NC(=O)[C@H](Cc1ccccc1)NC(=O)[C@@H](NC(=O)CNC(=O)[C@H](CCC(=O)O)NC(=O)C(C)(C)NC(=O)[C@H](N)Cc1ccc(O)cc1)[C@@H](C)O)[C@@H](C)O)[C@@H](C)CC)[C@@H](C)CC)C(=O)N[C@@H](C)C(=O)NCC(=O)NCC(=O)N1CCC[C@H]1C(=O)N[C@@H](CO)C(=O)N[C@@H](CO)C(=O)NCC(=O)N[C@@H](C)C(=O)N1CCC[C@H]1C(=O)N1CCC[C@H]1C(=O)N1CCC[C@H]1C(=O)N[C@@H](CO)C(N)=O [Example 365] (H-[dY][Aib]EGTFTSDYSI[αMeL]LDKK([AEEA-AEEA-γGlu-C20 diacid])AQ[Aib]AFIE[αMeY]LIAGGPSSGAPPPS-NH2) | 0.0678 nM | 0.464 nM | 0.175 nM | 0.00703 µM | 20.8% |  |  | 
CC[C@H](C)[C@H](NC(=O)[C@H](CC(C)C)NC(=O)[C@H](Cc1ccc(O)cc1)NC(=O)[C@H](CCC(=O)O)NC(=O)[C@@H](NC(=O)[C@H](Cc1ccccc1)NC(=O)[C@H](CCC(=O)O)NC(=O)C(C)(C)NC(=O)[C@H](CCC(N)=O)NC(=O)[C@H](C)NC(=O)[C@H](CCCCNC(=O)COCCOCCNC(=O)COCCOCCNC(=O)CC[C@H](NC(=O)CCCCCCCCCCCCCCCCC(=O)O)C(=O)O)NC(=O)[C@H](CCCCN)NC(=O)[C@H](CC(=O)O)NC(=O)[C@H](CC(C)C)NC(=O)[C@](C)(CC(C)C)NC(=O)[C@@H](NC(=O)[C@H](CO)NC(=O)[C@H](Cc1ccc(O)cc1)NC(=O)[C@H](CC(=O)O)NC(=O)[C@H](CO)NC(=O)[C@@H](NC(=O)[C@H](Cc1ccccc1)NC(=O)[C@@H](NC(=O)CNC(=O)[C@H](CCC(=O)O)NC(=O)C(C)(C)NC(=O)[C@@H](N)Cc1ccc(O)cc1)[C@@H](C)O)[C@@H](C)O)[C@@H](C)CC)[C@@H](C)CC)C(=O)N[C@@H](C)C(=O)NCC(=O)NCC(=O)N1CCC[C@H]1C(=O)N[C@@H](CO)C(=O)N[C@@H](CO)C(=O)NCC(N)=O [Example 306] (H-Y[Aib]EGTFTSDYSI[αMeL]LDKK([AEEA-AEEA-γGlu-C18 diacid])AQ[Aib]EFIEYLIAGGPSSG-NH2) | 0.0191 nM | 0.378 nM | 0.0711 nM |  |  | 0.0349 nM | 2.86 nM | > 1040 nM
CC[C@H](C)[C@H](NC(=O)[C@H](CC(C)C)NC(=O)[C@](C)(Cc1ccc(O)cc1)NC(=O)[C@H](CCC(=O)O)NC(=O)[C@@H](NC(=O)[C@H](Cc1ccccc1)NC(=O)[C@H](C)NC(=O)C(C)(C)NC(=O)[C@H](CCC(N)=O)NC(=O)[C@H](C)NC(=O)[C@H](CCCCNC(=O)COCCOCCNC(=O)COCCOCCNC(=O)CC[C@H](NC(=O)CCCCCCCCCCCCCCCCCCC(=O)O)C(=O)O)NC(=O)[C@H](CCC(=O)O)NC(=O)[C@H](CC(=O)O)NC(=O)[C@H](CC(C)C)NC(=O)[C@](C)(CC(C)C)NC(=O)[C@@H](NC(=O)[C@H](CO)NC(=O)[C@H](Cc1ccc(O)cc1)NC(=O)[C@H](CC(=O)O)NC(=O)[C@H](CO)NC(=O)[C@@H](NC(=O)[C@H](Cc1ccccc1)NC(=O)[C@@H](NC(=O)CNC(=O)[C@H](CCC(=O)O)NC(=O)C(C)(C)NC(=O)[C@H](N)Cc1ccc(O)cc1)[C@@H](C)O)[C@@H](C)O)[C@@H](C)CC)[C@@H](C)CC)C(=O)N[C@@H](C)C(=O)NCC(=O)NCC(=O)N1CCC[C@H]1C(=O)N[C@@H](CO)C(=O)N[C@@H](CO)C(=O)NCC(=O)N[C@@H](C)C(=O)N1CCC[C@H]1C(=O)N1CCC[C@H]1C(=O)N1CCC[C@H]1C(=O)N[C@@H](CO)C(N)=O [Example 381] (H-[dY][Aib]EGTFTSDYSI[αMeL]LDEK([AEEA-AEEA-γGlu-C20 diacid])AQ[Aib]AFIE[αMeY]LIAGGPSSGAPPPS-NH2) |  | 0.273 nM |  | 0.0155 µM | 25.8% |  |  | 
CC[C@H](C)[C@H](NC(=O)[C@H](CC(C)C)NC(=O)[C@H](Cc1ccc(O)cc1)NC(=O)[C@H](CCC(=O)O)NC(=O)[C@@H](NC(=O)[C@H](Cc1ccccc1)NC(=O)[C@H](C)NC(=O)C(C)(C)NC(=O)[C@H](CCC(N)=O)NC(=O)[C@H](C)NC(=O)[C@H](CCCCNC(=O)COCCOCCNC(=O)COCCOCCNC(=O)CC[C@H](NC(=O)CCCCCCCCCCCCCCCCC(=O)O)C(=O)O)NC(=O)[C@H](CCC(=O)O)NC(=O)[C@H](CC(=O)O)NC(=O)[C@H](CC(C)C)NC(=O)[C@](C)(CC(C)C)NC(=O)[C@@H](NC(=O)[C@H](CO)NC(=O)[C@H](Cc1ccc(O)cc1)NC(=O)[C@H](CC(=O)O)NC(=O)[C@H](CO)NC(=O)[C@@H](NC(=O)[C@H](Cc1ccccc1)NC(=O)[C@@H](NC(=O)CNC(=O)[C@H](CCC(=O)O)NC(=O)C(C)(C)NC(=O)[C@@H](N)Cc1ccc(O)cc1)[C@@H](C)O)[C@@H](C)O)[C@@H](C)CC)[C@@H](C)CC)C(=O)N[C@@H](CCC(=O)O)C(=O)NCC(=O)NCC(=O)N1CCC[C@H]1C(=O)N[C@@H](CO)C(=O)N[C@@H](CO)C(=O)NCC(=O)N[C@@H](C)C(=O)N1CCC[C@H]1C(=O)N1CCC[C@H]1C(=O)N1CCC[C@H]1C(=O)N[C@@H](CO)C(N)=O [Example 323] (H-Y[Aib]EGTFTSDYSI[αMeL]LDEK([AEEA-AEEA-γGlu-C18 diacid])AQ[Aib]AFIEYLIEGGPSSGAPPPS-NH2) | 0.0251 nM | 0.79 nM | 0.0597 nM |  |  | 0.0516 nM | 1.65 nM | 300 nM
